Results reported in the NIST ThermoML archive (doi:10.1021/acs.jced.8b00921).

Experiment: xn = mol fraction of the nth substance listed
Conditions: Gas, isochoric method

F/C=C(\F)C(F)(F)F [(Z)-1,2,3,3,3-pentafluoro-1-propene] + CC(C)C
Conditions | specific volume [m3/kg]
303.15 K, 207 kPa, x2 = 0.504 | 0.1216
308.15 K, 210.7 kPa, x2 = 0.504 | 0.1216
308.15 K, 303.6 kPa, x2 = 0.797 | 0.1074
308.15 K, 309.8 kPa, x2 = 0.345 | 0.0717
308.15 K, 316 kPa, x2 = 0.175 | 0.0632
308.15 K, 394.7 kPa, x2 = 0.916 | 0.0901
308.15 K, 410.6 kPa, x2 = 0.477 | 0.0585
313.15 K, 214.4 kPa, x2 = 0.504 | 0.1216
313.15 K, 309.3 kPa, x2 = 0.797 | 0.1074
313.15 K, 315.5 kPa, x2 = 0.345 | 0.0717
313.15 K, 321.9 kPa, x2 = 0.175 | 0.0632
313.15 K, 402.8 kPa, x2 = 0.916 | 0.0901
313.15 K, 418.8 kPa, x2 = 0.477 | 0.0585
318.15 K, 218 kPa, x2 = 0.504 | 0.1217
318.15 K, 315 kPa, x2 = 0.797 | 0.1074
318.15 K, 321.3 kPa, x2 = 0.345 | 0.0717
318.15 K, 327.8 kPa, x2 = 0.175 | 0.0633
318.15 K, 410.7 kPa, x2 = 0.916 | 0.0901
318.15 K, 426.9 kPa, x2 = 0.477 | 0.0585
323.15 K, 221.7 kPa, x2 = 0.504 | 0.1217
323.15 K, 320.6 kPa, x2 = 0.797 | 0.1074
323.15 K, 327 kPa, x2 = 0.345 | 0.0717
323.15 K, 333.7 kPa, x2 = 0.175 | 0.0633
323.15 K, 418.5 kPa, x2 = 0.916 | 0.0901
323.15 K, 434.9 kPa, x2 = 0.477 | 0.0585
328.15 K, 225.3 kPa, x2 = 0.504 | 0.1217
328.15 K, 326.2 kPa, x2 = 0.797 | 0.1075
328.15 K, 332.9 kPa, x2 = 0.345 | 0.0718
328.15 K, 339.5 kPa, x2 = 0.175 | 0.0633
328.15 K, 426.4 kPa, x2 = 0.916 | 0.0902
328.15 K, 442.8 kPa, x2 = 0.477 | 0.0586
333.15 K, 229 kPa, x2 = 0.504 | 0.1217
333.15 K, 331.8 kPa, x2 = 0.797 | 0.1075
333.15 K, 338.6 kPa, x2 = 0.345 | 0.0718
333.15 K, 346.4 kPa, x2 = 0.175 | 0.0633
333.15 K, 434 kPa, x2 = 0.916 | 0.0902
333.15 K, 450.8 kPa, x2 = 0.477 | 0.0586
338.15 K, 232.6 kPa, x2 = 0.504 | 0.1218
338.15 K, 337.4 kPa, x2 = 0.797 | 0.1075
338.15 K, 344.2 kPa, x2 = 0.345 | 0.0718
338.15 K, 351.2 kPa, x2 = 0.175 | 0.0633
338.15 K, 441.7 kPa, x2 = 0.916 | 0.0902
338.15 K, 458.7 kPa, x2 = 0.477 | 0.0586
343.15 K, 236.3 kPa, x2 = 0.504 | 0.1218
343.15 K, 342.9 kPa, x2 = 0.797 | 0.1075
343.15 K, 349.8 kPa, x2 = 0.345 | 0.0718
343.15 K, 357 kPa, x2 = 0.175 | 0.0633
343.15 K, 449.4 kPa, x2 = 0.916 | 0.0902
343.15 K, 466.6 kPa, x2 = 0.477 | 0.0586
348.15 K, 239.9 kPa, x2 = 0.504 | 0.1218
348.15 K, 348.5 kPa, x2 = 0.797 | 0.1076
348.15 K, 355.4 kPa, x2 = 0.345 | 0.0718
348.15 K, 362.8 kPa, x2 = 0.175 | 0.0633
348.15 K, 457 kPa, x2 = 0.916 | 0.0902
348.15 K, 474.5 kPa, x2 = 0.477 | 0.0586
353.15 K, 243.6 kPa, x2 = 0.504 | 0.1218
353.15 K, 354.1 kPa, x2 = 0.797 | 0.1076
353.15 K, 361 kPa, x2 = 0.345 | 0.0718
353.15 K, 368.6 kPa, x2 = 0.175 | 0.0634
353.15 K, 464.6 kPa, x2 = 0.916 | 0.0903
353.15 K, 482.3 kPa, x2 = 0.477 | 0.0586
358.15 K, 247.3 kPa, x2 = 0.504 | 0.1219
358.15 K, 359.6 kPa, x2 = 0.797 | 0.1076
358.15 K, 366.6 kPa, x2 = 0.345 | 0.0719
358.15 K, 374.3 kPa, x2 = 0.175 | 0.0634
358.15 K, 472.2 kPa, x2 = 0.916 | 0.0903
358.15 K, 490.2 kPa, x2 = 0.477 | 0.0586
363.15 K, 251 kPa, x2 = 0.504 | 0.1219
363.15 K, 365.1 kPa, x2 = 0.797 | 0.1076
363.15 K, 372.2 kPa, x2 = 0.345 | 0.0719
363.15 K, 380.1 kPa, x2 = 0.175 | 0.0634
363.15 K, 479.8 kPa, x2 = 0.916 | 0.0903
363.15 K, 497.9 kPa, x2 = 0.477 | 0.0586
368.15 K, 254.6 kPa, x2 = 0.504 | 0.1219
368.15 K, 370.4 kPa, x2 = 0.797 | 0.1077
368.15 K, 377.8 kPa, x2 = 0.345 | 0.0719
368.15 K, 385.9 kPa, x2 = 0.175 | 0.0634
368.15 K, 487.3 kPa, x2 = 0.916 | 0.0903
368.15 K, 505.7 kPa, x2 = 0.477 | 0.0587
373.15 K, 258.3 kPa, x2 = 0.504 | 0.122
373.15 K, 375.9 kPa, x2 = 0.797 | 0.1077
373.15 K, 383.4 kPa, x2 = 0.345 | 0.0719
373.15 K, 391.6 kPa, x2 = 0.175 | 0.0634
373.15 K, 494.9 kPa, x2 = 0.916 | 0.0903
373.15 K, 513.5 kPa, x2 = 0.477 | 0.0587
378.15 K, 262 kPa, x2 = 0.504 | 0.122
378.15 K, 381.6 kPa, x2 = 0.797 | 0.1077
378.15 K, 389 kPa, x2 = 0.345 | 0.0719
378.15 K, 397.3 kPa, x2 = 0.175 | 0.0634
378.15 K, 502.4 kPa, x2 = 0.916 | 0.0904
378.15 K, 521.3 kPa, x2 = 0.477 | 0.0587
383.15 K, 265.6 kPa, x2 = 0.504 | 0.122
383.15 K, 387 kPa, x2 = 0.797 | 0.1077
383.15 K, 394.6 kPa, x2 = 0.345 | 0.0719
383.15 K, 403.1 kPa, x2 = 0.175 | 0.0634
383.15 K, 509.9 kPa, x2 = 0.916 | 0.0904
383.15 K, 529 kPa, x2 = 0.477 | 0.0587
